Data published in patent publication US8815882B2, “Pyrazole aminopyrimidine derivatives as LRRK2 modulators” (Genentech, Inc., priority 2010, dated 2014).
pKi: −log10 of the molar value. Like-named read-outs stand apart in the source and are kept apart here.

Molecular target: T1, LRRK2 (Homo sapiens, UniProt Q5S007, G2019S)
T1 construct: purchased Invitrogen PV4882 (lot 567054A)
Assay: In Vitro LRRK2 Assay (LabChip 3000, fluorescently-labeled peptide substrate, ATP)
Type: biochemical
Method: This assay was used to determine a compound's potency in inhibiting activity of LRRK2 by determining, Kiapp, IC50, or percent inhibition values. In a polypropylene plate, LRRK2, fluorescently-labeled peptide substrate, ATP and test compound were incubated together. Using a LabChip 3000 (Caliper Life Sciences), after the reaction the substrate was separated by capillary electrophoresis into two populations: phosphorylated and unphosphorylated. The relative amounts of each were quantitated by fluorescence intensity. LRRK2 Ki was determined according to the equation: Y=V0*(1−(x+Ki*(1+S/Km)+Et)/(2*Et)−(((x+Ki*(1+S/Km)+Et)^2−(4*Et*x))^0.5)/(2*Et))). Ki values in Table 4 and elsewhere herein are shown in μM.
Assay conditions and materials used were as follows:
Compound Plate Preparation:
For serial dilutions, 34.6 μl DMSO was added to columns 3-24.
Total and Blank Preparation:
In Complete Reaction Buffer, substrate was diluted to 4 μM. Equal volumes of Complete Reaction Buffer and 4 μM substrate were combined to obtain the blank. Equal volumes of Complete Reaction Buffer and 4 μM substrate were combined and to the combined solution was added 2× final LRRK2 concentration.
To a 50 μl polypropylene plate, 5 μl/well buffer/substrate was added by hand to Blank wells. A Biomek FX was used to start the kinase reaction (“PLK SAR 23 ATP”). The following were added to the appropriate wells:
5 μl/well compound/ATP in Assay Plate;
5 μl/well kinase/substrate in Assay Plate;
The plate was incubated for 2 hours in the dark. Biomek FX was used to stop the kinase reaction (“PLK Stop”), and 10 μl/well Stop solution was added to the Assay Plate. Results were read on the LabChip 3000.
The LabChip 3000 was run using the job “LRRK2 IC50” with the following job settings: […]

[1] = read-out: LRRK2 Ki (KI), Table 7
[2] = read-out: LRRK2 Ki (KI), Table 8

T1 sequence (Q5S007 whole entry G2019S): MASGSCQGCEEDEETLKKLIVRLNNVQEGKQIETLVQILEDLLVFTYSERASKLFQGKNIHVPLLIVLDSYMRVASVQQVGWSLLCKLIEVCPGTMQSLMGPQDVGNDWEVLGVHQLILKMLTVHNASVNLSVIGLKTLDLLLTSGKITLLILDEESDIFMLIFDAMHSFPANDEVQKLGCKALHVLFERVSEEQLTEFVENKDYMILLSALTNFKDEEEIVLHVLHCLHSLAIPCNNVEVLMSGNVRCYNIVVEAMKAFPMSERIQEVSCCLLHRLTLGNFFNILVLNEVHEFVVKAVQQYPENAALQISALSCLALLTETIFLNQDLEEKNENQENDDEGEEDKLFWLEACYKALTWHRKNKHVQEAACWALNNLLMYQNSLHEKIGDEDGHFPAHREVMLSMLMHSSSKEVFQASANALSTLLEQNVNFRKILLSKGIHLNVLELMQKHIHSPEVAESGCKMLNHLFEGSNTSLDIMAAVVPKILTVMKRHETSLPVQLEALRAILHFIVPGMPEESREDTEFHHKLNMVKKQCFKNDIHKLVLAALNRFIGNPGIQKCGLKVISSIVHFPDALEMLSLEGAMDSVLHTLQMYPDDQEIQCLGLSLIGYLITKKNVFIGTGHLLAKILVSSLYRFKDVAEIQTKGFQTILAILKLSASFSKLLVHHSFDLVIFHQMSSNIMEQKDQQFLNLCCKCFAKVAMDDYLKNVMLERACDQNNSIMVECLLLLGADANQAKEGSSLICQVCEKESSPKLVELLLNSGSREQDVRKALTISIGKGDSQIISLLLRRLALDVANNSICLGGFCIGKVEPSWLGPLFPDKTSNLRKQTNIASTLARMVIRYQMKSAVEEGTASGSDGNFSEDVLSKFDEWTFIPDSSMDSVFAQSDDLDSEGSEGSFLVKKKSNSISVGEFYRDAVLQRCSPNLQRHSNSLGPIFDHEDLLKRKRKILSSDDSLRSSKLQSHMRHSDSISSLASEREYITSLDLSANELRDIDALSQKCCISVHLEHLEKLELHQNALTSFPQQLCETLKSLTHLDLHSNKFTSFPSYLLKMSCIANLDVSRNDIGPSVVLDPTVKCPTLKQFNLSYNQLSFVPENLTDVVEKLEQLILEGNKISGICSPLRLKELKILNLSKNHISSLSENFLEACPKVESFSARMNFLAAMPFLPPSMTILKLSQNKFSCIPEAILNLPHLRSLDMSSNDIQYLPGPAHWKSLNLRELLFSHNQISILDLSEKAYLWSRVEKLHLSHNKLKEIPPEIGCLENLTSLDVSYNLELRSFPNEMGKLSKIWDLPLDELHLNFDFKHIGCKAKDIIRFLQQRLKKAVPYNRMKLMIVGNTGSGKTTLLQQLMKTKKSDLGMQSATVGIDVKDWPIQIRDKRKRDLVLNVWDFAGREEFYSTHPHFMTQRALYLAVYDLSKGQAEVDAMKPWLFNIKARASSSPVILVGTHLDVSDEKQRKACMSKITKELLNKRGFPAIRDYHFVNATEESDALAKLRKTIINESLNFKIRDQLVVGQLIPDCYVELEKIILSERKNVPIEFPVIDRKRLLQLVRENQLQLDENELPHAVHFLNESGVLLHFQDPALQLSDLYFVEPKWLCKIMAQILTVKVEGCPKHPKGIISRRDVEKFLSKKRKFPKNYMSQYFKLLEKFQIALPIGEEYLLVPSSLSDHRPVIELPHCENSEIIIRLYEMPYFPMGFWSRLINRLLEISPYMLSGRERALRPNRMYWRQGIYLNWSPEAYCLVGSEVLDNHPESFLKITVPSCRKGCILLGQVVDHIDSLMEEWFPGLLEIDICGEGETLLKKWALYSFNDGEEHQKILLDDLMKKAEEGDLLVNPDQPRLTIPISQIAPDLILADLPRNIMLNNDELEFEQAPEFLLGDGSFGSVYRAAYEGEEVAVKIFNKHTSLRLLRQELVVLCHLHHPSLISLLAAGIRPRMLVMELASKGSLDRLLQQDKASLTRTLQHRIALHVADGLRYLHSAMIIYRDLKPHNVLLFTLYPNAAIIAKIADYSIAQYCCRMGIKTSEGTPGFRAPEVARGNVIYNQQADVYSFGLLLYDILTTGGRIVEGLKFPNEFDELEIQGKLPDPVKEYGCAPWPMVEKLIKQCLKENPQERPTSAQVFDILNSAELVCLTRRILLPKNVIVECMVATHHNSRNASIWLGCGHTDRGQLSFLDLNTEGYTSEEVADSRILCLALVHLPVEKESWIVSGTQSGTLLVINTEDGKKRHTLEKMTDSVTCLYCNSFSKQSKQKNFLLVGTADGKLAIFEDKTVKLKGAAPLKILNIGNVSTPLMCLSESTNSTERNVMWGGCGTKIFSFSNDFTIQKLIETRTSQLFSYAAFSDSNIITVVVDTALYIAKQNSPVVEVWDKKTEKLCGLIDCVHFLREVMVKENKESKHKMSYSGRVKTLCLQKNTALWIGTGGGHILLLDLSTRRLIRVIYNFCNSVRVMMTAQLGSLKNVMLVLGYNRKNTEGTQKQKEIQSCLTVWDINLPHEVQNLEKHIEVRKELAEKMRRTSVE

SMILES: COc1nc(Nc2cnn(C(C)(C)C#N)c2C)ncc1Cl [Example 72, 2-(4-(5-chloro-4-methoxy-pyrimidin-2-ylamino)-5-methyl-1H-pyrazol-1-yl)-2-methylpropane-nitrile]
- pKi [1]: 7.80

SMILES: COc1nc(Nc2cn(C(C)(C)C#N)nc2C)ncc1Cl [Example 73, 2-(4-(5-chloro-4-methoxy-pyrimidin-2-ylamino)-3-methyl-1H-pyrazol-1-yl)-2-methylpropane-nitrile]
- pKi [1]: 7.85

SMILES: COc1nc(Nc2cn(-c3ccc(S(C)(=O)=O)cc3)nc2C)ncc1Cl [Example 75, (5-Chloro-4-methoxy-pyrimidin-2-yl)-[1-(4-methanesulfonyl-phenyl)-3-methyl-1H-pyrazol-4-yl]-amine]
- pKi [1]: 8.66

SMILES: COc1nc(Nc2cn(-c3ccccc3)nc2C)ncc1Cl [Example 76, (5-Chloro-4-methoxy-pyrimidin-2-yl)-(3-methyl-1-phenyl-1H-pyrazol-4-yl)-amine]
- pKi [1]: 8.64

SMILES: COc1nc(Nc2cn(-c3ccccc3)nc2C)ncc1C(F)(F)F [Example 77, (4-Methoxy-5-trifluoromethyl-pyrimidin-2-yl)-(3-methyl-1-phenyl-1H-pyrazol-4-yl)-amine]
- pKi [1]: 8.80

SMILES: COc1nc(Nc2cnn(-c3ccccc3)c2C)ncc1C(F)(F)F [Example 78, (4-Methoxy-5-trifluoromethyl-pyrimidin-2-yl)-(5-methyl-1-phenyl-1H-pyrazol-4-yl)-amine]
- pKi [1]: 7.42

SMILES: COc1nc(Nc2cnn(C3CCOCC3)c2C)ncc1Cl [Example 80, (5-Chloro-4-methoxy-pyrimidin-2-yl)-[5-methyl-1-(tetrahydro-pyran-4-yl)-1H-pyrazol-4-yl]-amine]
- pKi [1]: 7.18

SMILES: COc1nc(Nc2cn(-c3ccc(C(=O)N(C)C)cc3)nc2C)ncc1Cl [Example 81, 4-[4-(5-Chloro-4-methoxy-pyrimidin-2-ylamino)-3-methyl-pyrazol-1-yl]-N,N-dimethyl-benzamide]
- pKi [1]: 8.66

SMILES: COc1nc(Nc2cnn(-c3ccc(C(=O)N(C)C)cc3)c2C)ncc1Cl [Example 82, 4-[4-(5-Chloro-4-methoxy-pyrimidin-2-ylamino)-5-methyl-pyrazol-1-yl]-N,N-dimethyl-benzamide]
- pKi [1]: 6.20

SMILES: COc1nc(Nc2cnn(-c3ccc(C#N)cc3)c2C)ncc1Cl [Example 83, 4-[4-(5-Chloro-4-methoxy-pyrimidin-2-ylamino)-5-methyl-pyrazol-1-yl]-benzonitrile]
- pKi [1]: 8.05

SMILES: CNc1nc(Nc2cnn(C)c2OC)ncc1C(F)(F)F [Example 84, N^2-(5-Methoxy-1-methyl-1H-pyrazol-4-yl)-N^4-methyl-5-trifluoromethyl-pyrimidine-2,4-diamine]
- pKi [1]: 7.13

SMILES: COc1nc(Nc2cnn(C3CCOCC3)c2Cl)ncc1Cl [Example 85, (5-Chloro-4-methoxy-pyrimidin-2-yl)-[5-chloro-1-(tetrahydro-pyran-4-yl)-1H-pyrazol-4-yl]-amine]
- pKi [1]: 8.18

SMILES: COc1nc(Nc2cn(C3CCN(CCF)CC3)nc2C)ncc1Cl [Example 86, (5-Chloro-4-methoxy-pyrimidin-2-yl)-{1-[1-(2-fluoro-ethyl)-piperidin-4-yl]-3-methyl-1H-pyrazol-4-yl}-amine]
- pKi [1]: 6.74

SMILES: CCNc1nc(Nc2cnn(C3CCN(CC4OCCO4)CC3)c2C)ncc1C(F)(F)F [Example 87, N^2-[1-(1-[1,3]Dioxolan-2-ylmethyl-piperidin-4-yl)-5-methyl-1H-pyrazol-4-yl]-N^4-ethyl-5-trifluoromethyl-pyrimidine-2,4-diamine]
- pKi [1]: 9.10

SMILES: CCNc1nc(Nc2cn(C3CCN(CC4OCCO4)CC3)nc2C)ncc1C(F)(F)F [Example 88, N^2-[1-(1-[1,3]Dioxolan-2-ylmethyl-piperidin-4-yl)-3-methyl-1H-pyrazol-4-yl]-N^4-ethyl-5-trifluoromethyl-pyrimidine-2,4-diamine]
- pKi [1]: 8.03

SMILES: CNc1nc(Nc2cnn(C)c2C)ncc1Br [Example 89, 5-Bromo-N^2-(1,5-dimethyl-1H-pyrazol-4-yl)-N^4-methylpyrimidine-2,4-diamine]
- pKi (read-out: LRRK2 Ki given in the example): 7.77

SMILES: CNc1nc(Nc2cnn(C3CCN(CC(F)(F)F)CC3)c2C)ncc1C(F)(F)F [Example 91, N4-methyl-N2-(5-methyl-1-(1-(2,2,2-trifluoroethyl)piperidin-4-yl)-1H-pyrazol-4-yl)-5-(trifluoromethyl) pyrimidine-2,4-diamine]
- pKi [2]: 8.39

SMILES: CNc1nc(Nc2cn(C3CCN(CC(F)(F)F)CC3)nc2C)ncc1C(F)(F)F [Example 92, N4-methyl-N2-(3-methyl-1-(1-(2,2,2-trifluoroethyl)piperidin-4-yl)-1H-pyrazol-4-yl)-5-(trifluoromethyl) pyrimidine-2,4-diamine]
- pKi [2]: 7.34

SMILES: CNc1nc(Nc2cnn(C3CCN(CC(F)(F)F)CC3)c2C)ncc1Br [Example 93, 5-bromo-N4-methyl-N2-(5-methyl-1-(1-(2,2,2-trifluoroethyl)piperidin-4-yl)-1H-pyrazol-4-yl)pyrimidine-2,4-diamine]
- pKi [2]: 8.85

SMILES: CNc1nc(Nc2cn(C3CCN(CC(F)(F)F)CC3)nc2C)ncc1Br [Example 94, 5-bromo-N4-methyl-N2-(3-methyl-1-(1-(2,2,2-trifluoroethyl)piperidin-4-yl)-1H-pyrazol-4-yl)pyrimidine-2,4-diamine]
- pKi [2]: 7.89

SMILES: CNc1nc(Nc2cn(CC(F)(F)F)nc2C)ncc1Br [Example 95, 5-bromo-N4-methyl-N2-(3-methyl-1-(2,2,2-trifluoroethyl)-1H-pyrazol-4-yl)pyrimidine-2,4-diamine]
- pKi [2]: 8.92

SMILES: CNc1nc(Nc2cnn(CC(F)(F)F)c2C)ncc1Br [Example 96, 5-bromo-N4-methyl-N2-(5-methyl-1-(2,2,2-trifluoroethyl)-1H-pyrazol-4-yl)pyrimidine-2,4-diamine]
- pKi [2]: 8.96

SMILES: CCNc1nc(Nc2cn(C3COC3)nc2C)ncc1C(F)(F)F [Example 97, N4-ethyl-N2-(3-methyl-1-(oxetan-3-yl)-1H-pyrazol-4-yl)-5-(trifluoromethyl) pyrimidine-2,4-diamine]
- pKi [2]: 8.80

SMILES: CCNc1nc(Nc2cn(C3COC3)nc2C)ncc1Cl [Example 98, 5-chloro-N4-ethyl-N2-(3-methyl-1-(oxetan-3-yl)-1H-pyrazol-4-yl)pyrimidine-2,4-diamine]
- pKi [2]: 8.51

SMILES: CNc1nc(Nc2ccnn2C)ncc1Br [Example 99, 5-bromo-N4-methyl-N2-(1-methyl-1H-pyrazol-5-yl)pyrimidine-2,4-diamine]
- pKi [2]: 8.27

SMILES: CNc1nc(Nc2cn(S(C)(=O)=O)nc2C)ncc1Cl [Example 101, 5-chloro-N4-methyl-N2-(3-methyl-1-(methylsulfonyl)-1H-pyrazol-4-yl)pyrimidine-2,4-diamine]
- pKi [2]: 8.06

SMILES: CNc1nc(Nc2cn(S(C)(=O)=O)nc2C)ncc1C(F)(F)F [Example 102, N4-methyl-N2-(3-methyl-1-(methylsulfonyl)-1H-pyrazol-4-yl)-5-(trifluoromethyl) pyrimidine-2,4-diamine]
- pKi [2]: 8.54

SMILES: CNc1nc(Nc2c[nH]nc2C)ncc1C(F)(F)F [Example 103, N4-methyl-N2-(3-methyl-1H-pyrazol-4-yl)-5-(trifluoromethyl) pyrimidine-2,4-diamine]
- pKi [2]: 8.05

SMILES: CCNc1nc(Nc2cn(C3COC3)nc2C)ncc1Br [Example 104, 5-bromo-N4-ethyl-N2-(3-methyl-1-(oxetan-3-yl)-1H-pyrazol-4-yl)pyrimidine-2,4-diamine]
- pKi [2]: 8.85

SMILES: CNc1nc(Nc2cn(C(F)F)nc2C)ncc1C(F)(F)F [Example 105, N2-(1-(difluoromethyl)-3-methyl-1H-pyrazol-4-yl)-N4-methyl-5-(trifluoromethyl) pyrimidine-2,4-diamine]
- pKi [2]: 8.26

SMILES: CNc1nc(Nc2cnn(C(F)F)c2C)ncc1C(F)(F)F [Example 106, N2-(1-(difluoromethyl)-5-methyl-1H-pyrazol-4-yl)-N4-methyl-5-(trifluoromethyl) pyrimidine-2,4-diamine]
- pKi [2]: 8.72

SMILES: CCNc1nc(Nc2cnn(CC)c2C)ncc1Br [Example 107, 5-bromo-N4-ethyl-N2-(1-ethyl-5-methyl-1H-pyrazol-4-yl)pyrimidine-2,4-diamine]
- pKi [2]: 9.37

SMILES: CNc1nc(Nc2cn(-c3ccc(F)cc3)nc2C)ncc1Br [Example 108, 5-bromo-N2-(1-(4-fluorophenyl)-3-methyl-1H-pyrazol-4-yl)-N4-methylpyrimidine-2,4-diamine]
- pKi [2]: 9.52

SMILES: CNc1nc(Nc2cn(-c3ccccc3)nc2C)ncc1Br [Example 109, 5-bromo-N4-methyl-N2-(3-methyl-1-phenyl-1H-pyrazol-4-yl)pyrimidine-2,4-diamine]
- pKi [2]: 8.08

SMILES: CCCn1cc(Nc2ncc(Br)c(NC)n2)c(C)n1 [Example 113, 5-bromo-N4-methyl-N2-(3-methyl-1-propyl-1H-pyrazol-4-yl)pyrimidine-2,4-diamine]
- pKi [2]: 7.92

SMILES: CNc1nc(Nc2cn(CC3(C)COC3)nc2C)ncc1Cl [Example 114, 5-chloro-N4-methyl-N2-(3-methyl-1-((3-methyloxetan-3-yl)methyl)-1H-pyrazol-4-yl)pyrimidine-2,4-diamine]
- pKi [2]: 7.72
